# Assay results as given in patent US9371363B2, “Peptides and their use” (Novabiotics Limited, priority 2007, dated 2016).
# Where two headings read alike, the source gives them in different places. Where no end group is shown, it is not given here.
# Columns and labels:
# Type in all cases: cell-based
# S. aureus = system: S. aureus
# Description: (§1) Broth Dilution Antibacterial Susceptibility Testing
# (§2) The sensitivity of relevant bacterial strains to the peptides (was determined using Clinical Laboratory Standard Institute (CLSI; formerly NCCLS) Approved Standards. Bacterial susceptibility was tested using “Methods for Dilution Antimicrobial Susceptibility Tests for Bacteria That Grow […]; Approved Standard—Seventh Edition M7-A7”
# P. acnes = system: P. acnes
# Description: as §1, §2
# Ps. aeruginosa = system: Ps. aeruginosa
# Description: as §1, §2
# [1] = P. acnes, values marked * in mg/ml
# [2] = S. aureus, values marked * in mg/ml
# [3] = Ps. aeruginosa, CLSI broth dilution
Compound,"Minimum Inhibitory Concentration, antimicrobial activity, S. aureus (S. aureus)",also measured
"KKKDKVKK [NP334, KKKDKVKK (SEQ ID NO: 28)]",>2 mM,–
"(K)n, n = 103-205 [NP101]",–,"Minimum Inhibitory Concentration, antimicrobial activity, P. acnes (P. acnes; [1]): 0.1* mg/ml; Minimum Inhibitory Concentration, antimicrobial activity, Ps. aeruginosa (Ps. aeruginosa; Ps. aeruginosa, values marked * in mg/ml): 0.125* mg/ml; Minimum Inhibitory Concentration, antimicrobial activity, S. aureus (S. aureus; [2]): <0.0313* mg/ml"
"RRWWRR [NP324, RRWWRR (SEQ ID NO: 20)]",1 mM,–
"(R)n, n = 86-402 [NP122]",–,"Minimum Inhibitory Concentration, antimicrobial activity, P. acnes (P. acnes; [1]): 0.01* mg/ml"
"RRVRR [NP303, RRVRR (SEQ ID NO: 3)]",>2 mM,–
"RRVRVRR [NP307, RRVRVRR (SEQ ID NO: 7)]",>2 mM,–
"N=C(N)NCCC[C@H](NC(=O)[C@H](CCCNC(=N)N)NC(=O)[C@H](CCCNC(=N)N)NC(=O)[C@H](CCCNC(=N)N)NC(=O)[C@H](CCCNC(=N)N)NC(=O)[C@H](CCCNC(=N)N)NC(=O)[C@H](CCCNC(=N)N)NC(=O)[C@H](CCCNC(=N)N)NC(=O)[C@H](CCCNC(=N)N)NC(=O)[C@H](CCCNC(=N)N)NC(=O)[C@@H](N)CCCNC(=N)N)C(=O)O [NP350, RRRRRRRRRRR (SEQ ID NO: 13)]",–,"Minimum Inhibitory Concentration, antimicrobial activity, Ps. aeruginosa (Ps. aeruginosa): 0.125 mM"
"KVRQGTLKKAR [NP335, KVRQGTLKKAR (SEQ ID NO: 29)]",>2 mM,–
"RRRVRRR [NP306, RRRVRRR (SEQ ID NO: 6)]",>2 mM,–
"(R)n, n = >402 [NP123]",–,"Minimum Inhibitory Concentration, antimicrobial activity, P. acnes (P. acnes; [1]): 0.01* mg/ml"
KKKKKEGKKQEKMLD [NP333],>2 mM,–
"GKKEKPEKKVKK [NP331, GKKEKPEKKVKK (SEQ ID NO: 25)]",>2 mM,–
"(K)n, n = 3-14 [NP112]",–,"Minimum Inhibitory Concentration, antimicrobial activity, P. acnes (P. acnes; [1]): 0.1* mg/ml"
"RRVVR [NP302, RRVVR (SEQ ID NO: 2)]",>2 mM,–
"RRVRVR [NP304, RRVRVR (SEQ ID NO: 4)]",>2 mM,–
"RRVVRRVVRR [NP311, RRVVRRVVRR (SEQ ID NO: 11)]",>2 mM,"Minimum Inhibitory Concentration, antimicrobial activity, P. acnes (P. acnes): 2 mM"
"(K)n, n = 7-34 [NP106]",–,"Minimum Inhibitory Concentration, antimicrobial activity, P. acnes (P. acnes; [1]): 0.125* mg/ml"
"RRRWRRR [NP325, RRRWRRR (SEQ ID NO: 21)]",>2 mM,–
"RRRVVRRR [NP308, RRRVVRRR (SEQ ID NO: 8)]",>2 mM,–
"N=C(N)NCCC[C@H](NC(=O)[C@H](CCCNC(=N)N)NC(=O)[C@H](CCCNC(=N)N)NC(=O)[C@H](CCCNC(=N)N)NC(=O)[C@H](CCCNC(=N)N)NC(=O)[C@H](CCCNC(=N)N)NC(=O)[C@H](CCCNC(=N)N)NC(=O)[C@H](CCCNC(=N)N)NC(=O)[C@@H](N)CCCNC(=N)N)C(=O)O [NP316, RRRRRRRRR (SEQ ID NO: 12)]",–,"Minimum Inhibitory Concentration, antimicrobial activity, P. acnes (P. acnes; P. acnes, CLSI broth dilution): 0.0313 mM"
"RRWRWRR [NP326, RRWRWRR (SEQ ID NO: 22)]",>2 mM,–
"N=C(N)NCCC[C@H](NC(=O)[C@H](CCCNC(=N)N)NC(=O)[C@H](CCCNC(=N)N)NC(=O)[C@H](CCCNC(=N)N)NC(=O)[C@H](CCCNC(=N)N)NC(=O)[C@H](CCCNC(=N)N)NC(=O)[C@H](CCCNC(=N)N)NC(=O)[C@H](CCCNC(=N)N)NC(=O)[C@H](CCCNC(=N)N)NC(=O)[C@H](CCCNC(=N)N)NC(=O)[C@@H](N)CCCNC(=N)N)C(=O)O [NP317, RRRRRRRRRRR (SEQ ID NO: 13)]",0.25 mM,–

Compound,"Minimum Inhibitory Concentration, antimicrobial activity, S. aureus (S. aureus)",also measured
"CC(=O)N[C@H](CCCNC(=N)N)C(=O)N[C@H](CCCNC(=N)N)C(=O)N[C@H](CCCNC(=N)N)C(=O)N[C@H](CCCNC(=N)N)C(=O)N[C@H](CCCNC(=N)N)C(=O)N[C@H](CCCNC(=N)N)C(=O)N[C@H](CCCNC(=N)N)C(=O)N[C@H](CCCNC(=N)N)C(=O)N[C@H](CCCNC(=N)N)C(=O)N[C@H](CCCNC(=N)N)C(=O)N[C@H](CCCNC(=N)N)C(=O)N[C@H](CCCNC(=N)N)C(=O)N[C@H](CCCNC(=N)N)C(N)=O [NP340, Ac-dRdRdRdRdRdRdRdRdRdRdRdRdR—NH2 (SEQ ID NO: 31)]",0.25 mM,"Minimum Inhibitory Concentration, antimicrobial activity, P. acnes (P. acnes): 0.02 mM; Minimum Inhibitory Concentration, antimicrobial activity, Ps. aeruginosa (Ps. aeruginosa; [3]): 0.125 mM"
"N=C(N)NCCC[C@@H](N)C(=O)N[C@H](CCCNC(=N)N)C(=O)N[C@H](CCCNC(=N)N)C(=O)N[C@H](CCCNC(=N)N)C(=O)N[C@H](CCCNC(=N)N)C(=O)N[C@H](CCCNC(=N)N)C(=O)N[C@H](CCCNC(=N)N)C(=O)N[C@H](CCCNC(=N)N)C(=O)N[C@H](CCCNC(=N)N)C(=O)N[C@H](CCCNC(=N)N)C(=O)N[C@H](CCCNC(=N)N)C(=O)N[C@H](CCCNC(=N)N)C(=O)N[C@H](CCCNC(=N)N)C(N)=O [NP341, dRdRdRdRdRdRdRdRdRdRdRdRdR—CONH (SEQ ID NO: 31)]",0.125 mM,–
PKTKAKAKAKKGKGKD [NP336],>2 mM,–
"RRVRRVRR [NP309, RRVRRVRR (SEQ ID NO: 9)]",–,"Minimum Inhibitory Concentration, antimicrobial activity, P. acnes (P. acnes): 1 mM"
KLTKPKPQAESKKKKK [NP332],>2 mM,–
"(H)n, n = 32-161 [NP131]",–,"Minimum Inhibitory Concentration, antimicrobial activity, P. acnes (P. acnes; [1]): >0.1* mg/ml; Minimum Inhibitory Concentration, antimicrobial activity, S. aureus (S. aureus; [2]): >2* mg/ml"
"RRWRWR [NP323, RRWRWR (SEQ ID NO: 19)]",>2 mM,–
"N=C(N)NCCC[C@H](NC(=O)[C@H](CCCNC(=N)N)NC(=O)[C@H](CCCNC(=N)N)NC(=O)[C@H](CCCNC(=N)N)NC(=O)[C@H](CCCNC(=N)N)NC(=O)[C@H](CCCNC(=N)N)NC(=O)[C@H](CCCNC(=N)N)NC(=O)[C@H](CCCNC(=N)N)NC(=O)[C@H](CCCNC(=N)N)NC(=O)[C@H](CCCNC(=N)N)NC(=O)[C@H](CCCNC(=N)N)NC(=O)[C@H](CCCNC(=N)N)NC(=O)[C@@H](N)CCCNC(=N)N)C(=O)O [NP337, RRRRRRRRRRRRR (SEQ ID NO: 31)]",–,"Minimum Inhibitory Concentration, antimicrobial activity, P. acnes (P. acnes): 0.0025 mM"
"N=C(N)NCCC[C@H](NC(=O)[C@H](CCCNC(=N)N)NC(=O)[C@H](CCCNC(=N)N)NC(=O)[C@H](CCCNC(=N)N)NC(=O)[C@H](CCCNC(=N)N)NC(=O)[C@H](CCCNC(=N)N)NC(=O)[C@H](CCCNC(=N)N)NC(=O)[C@H](CCCNC(=N)N)NC(=O)[C@H](CCCNC(=N)N)NC(=O)[C@H](CCCNC(=N)N)NC(=O)[C@H](CCCNC(=N)N)NC(=O)[C@H](CCCNC(=N)N)NC(=O)[C@@H](N)CCCNC(=N)N)C(=O)O [NP351, RRRRRRRRRRRRR (SEQ ID NO: 14)]",–,"Minimum Inhibitory Concentration, antimicrobial activity, Ps. aeruginosa (Ps. aeruginosa; [3]): 0.125 mM"
"N=C(N)NCCC[C@H](NC(=O)[C@H](CCCNC(=N)N)NC(=O)[C@H](CCCNC(=N)N)NC(=O)[C@H](CCCNC(=N)N)NC(=O)[C@H](CCCNC(=N)N)NC(=O)[C@H](CCCNC(=N)N)NC(=O)[C@H](CCCNC(=N)N)NC(=O)[C@H](CCCNC(=N)N)NC(=O)[C@H](CCCNC(=N)N)NC(=O)[C@H](CCCNC(=N)N)NC(=O)[C@H](CCCNC(=N)N)NC(=O)[C@H](CCCNC(=N)N)NC(=O)[C@@H](N)CCCNC(=N)N)C(=O)O [NP318, RRRRRRRRRRRRR (SEQ ID NO: 14)]",0.125 mM,"Minimum Inhibitory Concentration, antimicrobial activity, P. acnes (P. acnes): <0.0156 mM"
"RVRVR [NP301, RVRVR (SEQ ID NO: 1)]",>2 mM,–
KKKKKKKKKKKKKKK [NP348],–,"Minimum Inhibitory Concentration, antimicrobial activity, P. acnes (P. acnes; P. acnes, CLSI broth dilution): 0.0625 mM; Minimum Inhibitory Concentration, antimicrobial activity, S. aureus (S. aureus; S. aureus, CLSI broth dilution): 0.25 mM"
"RRRRVVRRRR [NP310, RRRRVVRRRR (SEQ ID NO: 10)]",>2 mM,"Minimum Inhibitory Concentration, antimicrobial activity, P. acnes (P. acnes): 0.5 mM"
"RRWRR [NP322, RRWRR (SEQ ID NO: 18)]",>2 mM,–
"RRWWR [NP321, RRWWR (SEQ ID NO: 17)]",>2 mM,–
"RRWRRWRR [NP328, RRWRRWRR (SEQ ID NO: 24)]",>2 mM,–
"RRVVRR [NP305, RRVVRR (SEQ ID NO: 5)]",>2 mM,–
"KKKKKKKKK [NP345, KKKKKKKKK (SEQ ID NO: 33)]",–,"Minimum Inhibitory Concentration, antimicrobial activity, P. acnes (P. acnes): 2.5 mM"
"(H)n, n = >32 [NP132]",–,"Minimum Inhibitory Concentration, antimicrobial activity, P. acnes (P. acnes; [1]): 0.1* mg/ml"
CC(=O)N[C@@H](CCCNC(=N)N)C(=O)N[C@@H](CCCNC(=N)N)C(=O)N[C@@H](CCCNC(=N)N)C(=O)N[C@@H](CCCNC(=N)N)C(=O)N[C@@H](CCCNC(=N)N)C(=O)N[C@@H](CCCNC(=N)N)C(=O)N[C@@H](CCCNC(=N)N)C(=O)N[C@@H](CCCNC(=N)N)C(=O)N[C@@H](CCCNC(=N)N)C(=O)N[C@@H](CCCNC(=N)N)C(=O)N[C@@H](CCCNC(=N)N)C(=O)N[C@@H](CCCNC(=N)N)C(=O)N[C@@H](CCCNC(=N)N)C(N)=O [NP338],–,"Minimum Inhibitory Concentration, antimicrobial activity, P. acnes (P. acnes): 0.005 mM; Minimum Inhibitory Concentration, antimicrobial activity, Ps. aeruginosa (Ps. aeruginosa; [3]): 0.0625 mM"
"RWRWR [NP320, RWRWR (SEQ ID NO: 16)]",>2 mM,–
